Values quoted from earlier work as cited in patent US7109171B2, “Methods for treating FSH related conditions with GnRH antagonists” (Praecis Pharmaceuticals Inc., priority 2000, dated 2006).
Square brackets hold non-standard residues; d marks the D form. Peptide text beside a SMILES is read from it. dPhe(4-Cl) = N[C@H](Cc1ccc(Cl)cc1)C(=O)O; d2Nal = N[C@H](Cc1ccc2ccccc2c1)C(=O)O; dCit = NC(=O)NCCC[C@@H](N)C(=O)O; d3Pal = N[C@H](Cc1cccnc1)C(=O)O

How the values were obtained:
[1] = system: FSH; settings: single bolus injection
[2] = system: LH; settings: in vivo

Row | Compound | effect on FSH levels [1] | effect on LH levels [2]
1 | CC(=O)N[C@H](Cc1ccc2ccccc2c1)C(=O)N[C@H](Cc1ccc(Cl)cc1)C(=O)N[C@H](Cc1cccnc1)C(=O)N[C@@H](CO)C(=O)N[C@@H](Cc1ccc(O)cc1)C(=O)N[C@H](CCCNC(N)=O)C(=O)N[C@@H](CC(C)C)C(=O)N[C@@H](CCCNC(=N)N)C(=O)N1CCC[C@H]1C(=O)N[C@H](C)C(N)=O [Cetrorelix] (Ac-[d2Nal][dPhe(4-Cl)][d3Pal]SY[dCit]LRP[dA]-NH2) | did not significantly affect | reduced
2 | Nal-Glu | did not significantly affect | reduced
